Experimental data from US20080139604A1, “Method of Treating Atherosclerosis, Dyslipidemias and Related Conditions” (priority 2005, published 2008).

Tested on: DP-independent nicotinic acid induced vasodilation
Assay: nicotinic acid induced vasodilation in mice genetically devoid of the DP receptor
Assay type: in vivo, mouse
Conditions: mice genetically devoid of the DP receptor (DP1), administration or pre-administration
Protocol: Thus, some portion of nicotinic acid induced vasodilation may not be dependent on the DP receptor. This DP-independent vasodilation can be inhibited by the administration or pre-administration of aspirin, a COX-1/COX-II inhibitor, to the mice. Human doses range from about 20-25 mg to as high as about 650 mg, administered about one hour to about 30 minutes before the administration of nicotinic acid, up to simultaneous administration, and repeated as necessary up to about every four hours. Thus a combination of DP receptor antagonist and aspirin is particularly effective to suppress nicotinic acid induced flushing in humans, attenuating some or all of the flushing that is not suppressed by the […] or by aspirin alone.

SMILES: CC(=O)Oc1ccccc1C(=O)O [aspirin]
- inhibition of DP-independent nicotinic acid induced vasodilation: inhibited
